Test results reported in patent publication US9248109B2, “High penetration prodrug compositions of peptides and peptide-related compounds” (priority 2009, dated 2016).

Key:
[1] = In vitro penetration rate across isolated human skin in modified Franz cells (HPLC); details: parent drugs; at lowest detectable value, considered not detectable
Description: The penetration rates of HPPs/HPCs and their parent drugs through human skin were measured in vitro by modified Franz cells. The Franz cells had two chambers, the top sample chamber and the bottom receiving chamber. The human skin tissue (360-400 p.m thick) that separated the top and the receiving chambers was isolated from the anterior or posterior thigh areas.
A compound tested (2 mL, 20% in 0.2 M phosphate buffer, pH 7.4) was added to the sample chamber of a Franz cell. The receiving chamber contains 10 ml of pH 7.4 phosphate buffer (0.2 M) which was stirred at 600 rpm. The amount of the tested compound penetrating the skin was determined by high-performance liquid chromatography (HPLC) method.

mice = experiment: Acetic acid writhing inhibition in mice, transdermal; type: in vivo, mouse; details: 10 mg/kg transdermally to the neck, acetic acid i.p. 30 minutes later; for rate of writhing inhibition (%): based on the control group; for No. of Writhings: control 35.0
Description: The number of writhings that occurred when mice were administered an acetic acid solution intraperitoneally were counted, and the rate of inhibition based on the control group was calculated. […] 30 minutes later, acetic acid solution was administered. The group A was the control group.

Osborne-Mendel rats = details: injected intraperitoneally, rats starved overnight, high-fat diet; cited from earlier work
rats = experiment: Solicitation and copulation of rats treated transdermally with HPPs/HPCs of Melanocortin II; type: in vivo, rat; details: for increase in copulation comparing to the control group / increase in solicitation comparing to the control group: 2 mg/kg once per day for 5 days; for Increased Copulation / Increased Solicitation: 2 mg/kg on the back once per day for 5 days, control = 1
Description: The same dosage of cyclo(1,6)-Ac-Nle-Asp-His-Phe-Arg(NO2)-Trp-Lys-OCH2CH2N(CH2CH3)2.HCl(SEQ ID NO: 201) (peptide B) was applied to the back of another group of male rats (Group B-1, 30 rats). Rats of a control group were not treated with any drug. […] 6 fold increase in solicitation and 3 fold increase in copulation for Group B-1 in rats were observed comparing to the control group (Table 15).
2 mg/kg peptide A and peptide B in 0.2 ml of pH 7.0 phosphate buffer (0.1M) were applied to the back of both male rats (30 rats) and female rats (30 rates) once per day for 5 days. Rats of a control group were not treated with any drug.

[2] = male and female rats treated (Groups A-2, B-2)
[3] = male rats treated (Groups A-1, B-1)

**Q.** For CSCC[C@H](NC(=O)[C@H](Cc1ccccc1)NC(=O)CNC(=O)CNC(=O)[C@@H](N)Cc1ccc(O)cc1)C(=O)O [Met-enkephalin, H-Tyr-Gly-Gly-Phe-Met-OH], which apparent flux value [1] is on record?
**A.** The apparent flux value was 1 μg/cm^2/h.

**Q.** What does the source list for “Ac-Tyr(Ac)-D-Ala-Gly-Phe-Leu-OCH2CH2N(CH2CH3).HCl”?
**A.** rate of writhing inhibition (%) (mice): 85%; No. of Writhings (mice): 5.2

**Q.** Which “food intake (in words)” value (Osborne-Mendel rats) does the source give for H-Val-Pro-Asp-Pro-Arg OH here?
**A.** Its value is “dose-dependent reduction in food intake”.

**Q.** Which results are given for “HCl.H-Tyr(Ac)-D-Ala-Gly-Phe-Leu-OCH2(CH2)4—CH3 [B]”?
**A.** rate of writhing inhibition (%) (mice): 75%; No. of Writhings (mice): 8.6

**Q.** With HCl.H-Tyr(Ac)-D-Ala-Gly-Phe-Met(O)—OL as the molecule, how does the “rate of writhing inhibition (%)” value (mice) read?
**A.** Its value is 91%.

**Q.** What about the “No. of Writhings” value (mice) of the same molecule?
**A.** The value was 3.2.

**Q.** For “cyclo(1,6)-Ac-Nle-Asp-His-Phe-Arg(diAc)-Trp-Lys-OCH2CH2N(CH2CH3)2.HCl”, which “increase in copulation comparing to the control group” value (rats; [2]) is on record?
**A.** Its value is 5 fold.

**Q.** And the “increase in solicitation comparing to the control group” value (rats; [2])?
**A.** Its value is 6 fold.

**Q.** What about the “Increased Copulation” value (rats; male and female rats treated) of the same molecule?
**A.** Its value is 5.

**Q.** What about the “Increased Solicitation” value (rats; male and female rats treated) of the same molecule?
**A.** The value was 6.

**Q.** And the “increase in copulation comparing to the control group” value (rats; [3])?
**A.** The value was 3 fold.

**Q.** And the “increase in solicitation comparing to the control group” value (rats; [3])?
**A.** The value was 5 fold.

**Q.** And the “Increased Copulation” value (rats; male rats treated)?
**A.** The value was 3.

**Q.** What about the “Increased Solicitation” value (rats; male rats treated) of the same molecule?
**A.** The value was 5.
